{"source": "patent US10119124B2", "about": "(priority 2007, dated 2018)", "key": {"[1]": {"test_system": "M2 mutants and wild-type WSN-UdM viruses", "details": "cited from earlier work"}, "[2]": {"test_system": "M2 mutants and wild-type WSN-UdM viruses", "type": "cell-based, influenza A virus"}}, "data": [{"molecule": "NC12CC3CC(CC(C3)C1)C2", "note": "[amantadine]", "values": [{"measurement": "concentrations at which the drug selectively inhibits viral replication", "setting": "[1]; cell culture (Appleyard, 1977)", "value": "0.1 to 5", "unit": "µM"}, {"measurement": "concentrations of nonspecific action (increase in pH of endosomes)", "setting": "[1]; cell culture (Daniels et al., 1985)", "value": "> 50", "unit": "μM"}, {"measurement": "effect on yield and plaque size of wild-type WSN-UdM virus", "setting": "[2]", "value": "markedly reduced"}]}]}
